# Test results taken from the supplement of paper PMC4862054.
# What was measured:
# BT-474 = details: 72 h
# Method in brief: (§1)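 EC50 was fitted from dose-response curves and censored at the highest concentration tested. To build those curves, breast cancer cell lines (20 µl suspension) were seeded into 384-well plates containing compound at 5 concentrations in 10-fold steps over a compound-specific 10,000-fold range and incubated for 72 h. Readouts were CellTox Green fluorescence (485/520 nm) for cell death and then CellTiter-Glo luminescence for viability, with each plate normalised to 0.1 % DMSO and a positive kill control.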
# BT-549 [1] = details: 72 h
# Method in brief: as §1
# CAL-120 [2] = details: 72 h
# Method in brief: as §1
# CAL-148 = details: 72 h
# Method in brief: as §1
# CAL-51 = details: 72 h
# Method in brief: as §1
# CAL-85-1 = details: 72 h
# Method in brief: as §1
# DU-4475 = details: 72 h
# Method in brief: as §1
# HCC1143 [3] = details: 72 h
# Method in brief: as §1
# HCC1599 [4] = details: 72 h
# Method in brief: as §1
# HCC1937 [5] = details: 72 h
# Method in brief: as §1
# HDQ-P1 = details: 72 h
# Method in brief: as §1
# Hs578T [6] = details: 72 h
# Method in brief: as §1
# MCF-10A = details: 72 h
# Method in brief: as §1
# MDA-MB-231 [7] = details: 72 h
# Method in brief: as §1
# MDA-MB-436 [8] = details: 72 h
# Method in brief: as §1
# MDA-MB-453 = details: 72 h
# Method in brief: as §1
# MDA-MB-468 [9] = details: 72 h
# Method in brief: as §1
# MFM-223 [10] = details: 72 h
# Method in brief: as §1
# SK-BR-3 [11] = details: 72 h
# Method in brief: as §1
# BT-549 [12] = details: 72 h; remark: listed apart in the source
# Method in brief: (§2)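 The reported EC50 was fitted from percent-inhibition dose-response curves and censored at the highest concentration. Breast cancer cell lines (20 µl suspension) were added to 384-well plates containing compound in 5 µl medium and incubated 72 h, and viability was read with 2.5 µl CellTiter-Blue over 2 h at 37 °C at 560/590 nm. Each plate was normalised to vehicle and a positive kill control and checked by Z'-factor, and rows with zero drug sensitivity score were dropped.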
# CAL-120 [13] = details: 72 h; remark: listed apart in the source
# Method in brief: as §2
# HCC1143 [14] = details: 72 h; remark: listed apart in the source
# Method in brief: as §2
# HCC1599 [15] = details: 72 h; remark: listed apart in the source
# Method in brief: as §2
# HCC1937 [16] = details: 72 h; remark: listed apart in the source
# Method in brief: as §2
# Hs578T [17] = details: 72 h; remark: listed apart in the source
# Method in brief: as §2
# MDA-MB-231 [18] = details: 72 h; remark: listed apart in the source
# Method in brief: as §2
# MDA-MB-436 [19] = details: 72 h; remark: listed apart in the source
# Method in brief: as §2
# MDA-MB-468 [20] = details: 72 h; remark: listed apart in the source
# Method in brief: as §2
# MFM-223 [21] = details: 72 h; remark: listed apart in the source
# Method in brief: as §2
# SK-BR-3 [22] = details: 72 h; remark: listed apart in the source
# Method in brief: as §2
# HCC1143 [23] = experiment: normalised viability (% of control), CellTiter-Blue; higher = more viable cells (about 100 = DMSO control); details: incubation time: 72 h
# Method in brief: (§3)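 Seeded at 20 µl suspension per well onto compound-loaded 384-well plates, breast cancer cell lines were incubated 72 h. CellTiter-Blue fluorescence at 560/590 nm was then read, with each plate normalised to vehicle (100) and a positive kill control (0). Normalised viability is reported at a single listed concentration of the series.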
# HCC1599 [24] = experiment: as above; details: incubation time: 72 h
# Method in brief: as §3
# HCC1937 [25] = experiment: as above; details: incubation time: 72 h
# Method in brief: as §3
# SK-BR-3 [26] = experiment: as above; details: incubation time: 72 h
# Method in brief: as §3
smiles,measurement,setting,value
COc1c(C)cnc(Cn2cnc3c(Cl)nc(N)nc32)c1C [BIIB021],"EC50, CellTiter-Glo",BT-474,0.421 µM
same,"EC50, CellTiter-Glo",BT-549 [1],0.0926 µM
same,"EC50, CellTiter-Glo",CAL-120 [2],0.247 µM
same,"EC50, CellTiter-Glo",CAL-148,0.199 µM
same,"EC50, CellTiter-Glo",CAL-51,0.227 µM
same,"EC50, CellTiter-Glo",CAL-85-1,0.308 µM
same,"EC50, CellTiter-Glo",DU-4475,0.329 µM
same,"EC50, CellTiter-Glo",HCC1143 [3],0.416 µM
same,"EC50, CellTiter-Glo",HCC1599 [4],0.19 µM
same,"EC50, CellTiter-Glo",HCC1937 [5],0.157 µM
same,"EC50, CellTiter-Glo",HDQ-P1,0.242 µM
same,"EC50, CellTiter-Glo",Hs578T [6],0.756 µM
same,"EC50, CellTiter-Glo",MCF-10A,0.354 µM
same,"EC50, CellTiter-Glo",MDA-MB-231 [7],0.483 µM
same,"EC50, CellTiter-Glo",MDA-MB-436 [8],0.141 µM
same,"EC50, CellTiter-Glo",MDA-MB-453,0.153 µM
same,"EC50, CellTiter-Glo",MDA-MB-468 [9],0.37 µM
same,"EC50, CellTiter-Glo",MFM-223 [10],0.192 µM
same,"EC50, CellTiter-Glo",SK-BR-3 [11],0.0137 µM
same,"EC50, CellTiter-Blue viability",BT-549 [12],0.0448 µM
same,"EC50, CellTiter-Blue viability",CAL-120 [13],0.0269 µM
same,"EC50, CellTiter-Blue viability",HCC1143 [14],0.064 µM
same,"EC50, CellTiter-Blue viability",HCC1599 [15],0.721 µM
same,"EC50, CellTiter-Blue viability",HCC1937 [16],0.0871 µM
same,"EC50, CellTiter-Blue viability",Hs578T [17],0.047 µM
same,"EC50, CellTiter-Blue viability",MDA-MB-231 [18],0.177 µM
same,"EC50, CellTiter-Blue viability",MDA-MB-436 [19],0.429 µM
same,"EC50, CellTiter-Blue viability",MDA-MB-468 [20],0.353 µM
same,"EC50, CellTiter-Blue viability",MFM-223 [21],0.0577 µM
same,"EC50, CellTiter-Blue viability",SK-BR-3 [22],0.028 µM
same,normalised viability,HCC1143 [23]; 10 nM,80.8%
same,normalised viability,HCC1143 [23]; 1000 nM,32.1%
same,normalised viability,HCC1143 [23]; 10000 nM,30.6%
same,normalised viability,HCC1599 [24]; 10 nM,102%
same,normalised viability,HCC1599 [24]; 1000 nM,58.8%
same,normalised viability,HCC1599 [24]; 10000 nM,40.7%
same,normalised viability,HCC1937 [25]; 10 nM,83.1%
same,normalised viability,HCC1937 [25]; 1000 nM,25.1%
same,normalised viability,HCC1937 [25]; 10000 nM,22.1%
same,normalised viability,SK-BR-3 [26]; 10 nM,85.7%
same,normalised viability,SK-BR-3 [26]; 1000 nM,14.5%
same,normalised viability,SK-BR-3 [26]; 10000 nM,12.8%
CC(C)C[C@H](NC(=O)[C@H](Cc1ccccc1)NC(=O)c1cnccn1)B(O)O [Bortezomib],"EC50, CellTiter-Glo",BT-474,0.00894 µM
same,"EC50, CellTiter-Glo",BT-549 [1],0.00396 µM
same,"EC50, CellTiter-Glo",CAL-120 [2],0.0161 µM
same,"EC50, CellTiter-Glo",CAL-148,0.0601 µM
same,"EC50, CellTiter-Glo",CAL-51,0.03 µM
same,"EC50, CellTiter-Glo",CAL-85-1,0.00447 µM
same,"EC50, CellTiter-Glo",DU-4475,0.0271 µM
same,"EC50, CellTiter-Glo",HCC1143 [3],0.019 µM
same,"EC50, CellTiter-Glo",HCC1599 [4],0.097 µM
same,"EC50, CellTiter-Glo",HCC1937 [5],0.0712 µM
same,"EC50, CellTiter-Glo",HDQ-P1,0.0124 µM
same,"EC50, CellTiter-Glo",Hs578T [6],0.0131 µM
same,"EC50, CellTiter-Glo",MCF-10A,0.135 µM
same,"EC50, CellTiter-Glo",MDA-MB-231 [7],0.0139 µM
same,"EC50, CellTiter-Glo",MDA-MB-436 [8],0.0061 µM
same,"EC50, CellTiter-Glo",MDA-MB-453,0.0229 µM
same,"EC50, CellTiter-Glo",MDA-MB-468 [9],0.00293 µM
same,"EC50, CellTiter-Glo",MFM-223 [10],0.0051 µM
same,"EC50, CellTiter-Glo",SK-BR-3 [11],0.00028 µM
same,"EC50, CellTiter-Blue viability",BT-549 [12],0.00783 µM
same,"EC50, CellTiter-Blue viability",CAL-120 [13],0.00542 µM
same,"EC50, CellTiter-Blue viability",HCC1143 [14],0.00646 µM
same,"EC50, CellTiter-Blue viability",HCC1599 [15],0.0795 µM
same,"EC50, CellTiter-Blue viability",HCC1937 [16],0.00293 µM
same,"EC50, CellTiter-Blue viability",Hs578T [17],0.0222 µM
same,"EC50, CellTiter-Blue viability",MDA-MB-231 [18],0.00389 µM
same,"EC50, CellTiter-Blue viability",MDA-MB-436 [19],0.0349 µM
same,"EC50, CellTiter-Blue viability",MDA-MB-468 [20],0.00295 µM
same,"EC50, CellTiter-Blue viability",MFM-223 [21],0.00667 µM
same,"EC50, CellTiter-Blue viability",SK-BR-3 [22],0.00277 µM
same,normalised viability,HCC1143 [23]; 1 nM,81%
same,normalised viability,HCC1143 [23]; 100 nM,19.4%
same,normalised viability,HCC1143 [23]; 1000 nM,17.4%
same,normalised viability,HCC1599 [24]; 1 nM,130%
same,normalised viability,HCC1599 [24]; 100 nM,64.5%
same,normalised viability,HCC1599 [24]; 1000 nM,45.2%
same,normalised viability,HCC1937 [25]; 1 nM,83.4%
same,normalised viability,HCC1937 [25]; 100 nM,8.79%
same,normalised viability,HCC1937 [25]; 1000 nM,3.46%
same,normalised viability,SK-BR-3 [26]; 1 nM,90.2%
same,normalised viability,SK-BR-3 [26]; 100 nM,17.5%
same,normalised viability,SK-BR-3 [26]; 1000 nM,15.6%
C#Cc1cccc(Nc2ncnc3cc(OC)c(OCCCCCCC(=O)NO)cc23)c1 [CUDC-101],"EC50, CellTiter-Glo",BT-474,1.97 µM
same,"EC50, CellTiter-Glo",BT-549 [1],1.17 µM
same,"EC50, CellTiter-Glo",CAL-120 [2],3.23 µM
same,"EC50, CellTiter-Glo",CAL-148,1.28 µM
same,"EC50, CellTiter-Glo",CAL-51,0.847 µM
same,"EC50, CellTiter-Glo",CAL-85-1,0.212 µM
same,"EC50, CellTiter-Glo",DU-4475,1.5 µM
same,"EC50, CellTiter-Glo",HCC1143 [3],0.783 µM
same,"EC50, CellTiter-Glo",HCC1599 [4],0.911 µM
same,"EC50, CellTiter-Glo",HCC1937 [5],1.47 µM
same,"EC50, CellTiter-Glo",HDQ-P1,3.36 µM
same,"EC50, CellTiter-Glo",Hs578T [6],1.92 µM
same,"EC50, CellTiter-Glo",MCF-10A,0.242 µM
same,"EC50, CellTiter-Glo",MDA-MB-231 [7],0.689 µM
same,"EC50, CellTiter-Glo",MDA-MB-436 [8],1.64 µM
same,"EC50, CellTiter-Glo",MDA-MB-453,0.123 µM
same,"EC50, CellTiter-Glo",MDA-MB-468 [9],0.202 µM
same,"EC50, CellTiter-Glo",MFM-223 [10],0.19 µM
same,"EC50, CellTiter-Glo",SK-BR-3 [11],0.507 µM
same,"EC50, CellTiter-Blue viability",BT-549 [12],1.62 µM
same,"EC50, CellTiter-Blue viability",CAL-120 [13],0.294 µM
same,"EC50, CellTiter-Blue viability",HCC1143 [14],0.361 µM
same,"EC50, CellTiter-Blue viability",HCC1599 [15],0.295 µM
same,"EC50, CellTiter-Blue viability",HCC1937 [16],0.77 µM
same,"EC50, CellTiter-Blue viability",Hs578T [17],0.394 µM
same,"EC50, CellTiter-Blue viability",MDA-MB-231 [18],0.835 µM
same,"EC50, CellTiter-Blue viability",MDA-MB-436 [19],0.969 µM
same,"EC50, CellTiter-Blue viability",MDA-MB-468 [20],0.2 µM
same,"EC50, CellTiter-Blue viability",MFM-223 [21],0.145 µM
same,"EC50, CellTiter-Blue viability",SK-BR-3 [22],0.101 µM
same,normalised viability,HCC1143 [23]; 10 nM,78.3%
same,normalised viability,HCC1143 [23]; 1000 nM,32.8%
same,normalised viability,HCC1143 [23]; 10000 nM,11.6%
same,normalised viability,HCC1599 [24]; 10 nM,78.8%
same,normalised viability,HCC1599 [24]; 1000 nM,28.6%
same,normalised viability,HCC1599 [24]; 10000 nM,16%
same,normalised viability,HCC1937 [25]; 10 nM,71.7%
same,normalised viability,HCC1937 [25]; 1000 nM,45.4%
same,normalised viability,HCC1937 [25]; 10000 nM,14.6%
same,normalised viability,SK-BR-3 [26]; 10 nM,75.5%
same,normalised viability,SK-BR-3 [26]; 1000 nM,16.8%
same,normalised viability,SK-BR-3 [26]; 10000 nM,2.82%
